# System: TNFα
# Assay: Cot Monocyte TNFα Cell Based Assay
# Details: Homo sapiens, Monocyte, read-out: EC50 TNF, LPS-stimulated human monocytes, TNFα
row,SMILES,EC50 [nM]
1,"Cc1ncsc1[C@H](Nc1cc(Cl)c2ncc(C#N)c(Nc3cnc(F)c(F)c3)c2c1)c1c[nH]nn1 [Example 170, (R)-8-chloro-4-((5,6-difluoropyridin-3-yl)amino)-6-(((4-methylthiazol-5-yl)(1H-1,2,3-triazol-4-yl)methyl)amino)quinoline-3-carbonitrile]",1260
2,"Cn1ccc2c([C@H](Nc3cc(Cl)c4ncc(C#N)c(NCC(C)(C)C)c4c3)c3cn(C4(C(F)(F)F)CC4)nn3)ccnc21 [Example 658, (S)-8-chloro-6-(((1-methyl-1H-pyrrolo[2,3-b]pyridin-4-yl)(1-(1-(trifluoromethyl)-cyclopropyl)-1H-1,2,3-triazol-4-yl)methyl)amino)-4-(neopentylamino)quinoline-3-carbonitrile]",374
3,"CC(C)(C)N1CCC(n2cc([C@@H](Nc3cc(Cl)c4ncc(C#N)c(Nc5ccc(F)c(Cl)c5)c4c3)c3cocn3)nn2)CC1 [Example 348, (S)-6-(((1-(1-(tert-butyl)piperidin-4-yl)-1H-1,2,3-triazol-4-yl)(oxazol-4-yl)methyl)amino)-8-chloro-4-((3-chloro-4-fluorophenyl)amino)-quinoline-3-carbonitrile]",444
4,"COc1ccc([C@H](Nc2cc(Cl)c3ncc(C#N)c(Nc4ccc(F)c(Cl)c4)c3c2)c2cn(C3CCN(C(C)(C)C)CC3)nn2)cn1 [Example 290, (S)-6-(((1-(1-(tert-butyl)piperidin-4-yl)-1H-1,2,3-triazol-4-yl)(6-methoxy-pyridin-3-yl)methyl)amino)-8-chloro-4-((3-chloro-4-fluorophenyl)amino)-quinoline-3-carbonitrile]",185
5,"[2H]C([2H])(Nc1c(C#N)cnc2c(Cl)cc(N[C@@]([2H])(c3ccc(N(C)C)nc3)c3cn(C4CC4)nn3)cc12)C(C)(C)C [Example 679, (S)-8-chloro-6-(((1-cyclopropyl-1H-1,2,3-triazol-4-yl)(6-(dimethylamino)pyridin-3-yl)methyl-d)amino)-4-((2,2-dimethylpropyl-1,1-d2)amino)quinoline-3-carbonitrile]",710
6,"CC(C)(C)N1CCC(n2cc([C@@H](Nc3cc(Cl)c4ncc(C#N)c(Nc5ccc(F)c(Cl)c5)c4c3)c3cccc4ncsc34)nn2)CC1 [Example 52, (S)-6-((benzo[d]thiazol-7-yl(1-(1-(tert-butyl)piperidin-4-yl)-1H-1,2,3-triazol-4-yl)methyl)amino)-8-chloro-4-((3-chloro-4-fluorophenyl)amino)quinoline-3-carbonitrile]",88
7,"CC[C@@H](Nc1c(C#N)cnc2c(Cl)cc(N[C@@H](c3cccnc3)c3cn(C4COC4)nn3)cc12)c1ccccc1 [Example 194, 8-chloro-6-(((S)-(1-(oxetan-3-yl)-1H-1,2,3-triazol-4-yl)(pyridin-3-yl)methyl)amino)-4-(((R)-1-phenylpropyl)amino)quinoline-3-carbonitrile]",111
8,"Cc1ccc([C@H](Nc2cc(Cl)c3ncc(C#N)c(NCC(C)(C)C)c3c2)c2cn(C3(C(F)(F)F)CC3)nn2)cn1 [Example 795, (S)-8-chloro-6-(((6-methylpyridin-3-yl)(1-(1-(trifluoromethyl)cyclopropyl)-1H-1,2,3-triazol-4-yl)methyl)amino)-4-(neopentylamino)quinoline-3-carbonitrile]",530
9,"Cc1ccc([C@H](Nc2cc(Cl)c3ncc(C#N)c(Nc4ccc(F)c(Cl)c4)c3c2)c2cn(C3CCN(C(C)(C)C)CC3)nn2)cn1 [Example 281, (S)-6-(((1-(1-(tert-butyl)piperidin-4-yl)-1H-1,2,3-triazol-4-yl)(6-methylpyridin-3-yl)methyl)amino)-8-chloro-4-((3-chloro-4-fluorophenyl)-amino)quinoline-3-carbonitrile]",575
10,"CC[C@@H](Nc1c(C#N)cnc2c(Cl)cc(N[C@@H](c3cccnc3)c3cn(C4CCCC4)nn3)cc12)c1ccccc1 [Example 213, 8-chloro-6-(((S)-(1-cyclopentyl-1H-1,2,3-triazol-4-yl)(pyridin-3-yl)methyl)amino)-4-(((R)-1-phenylpropyl)amino)quinoline-3-carbonitrile]",103
11,"Cc1nc(F)ccc1[C@H](Nc1cc(C#N)c2ncc(C#N)c(N[C@@H](c3ccccc3)C3CC3)c2c1)c1cn(C2(C(F)(F)F)CC2)nn1 [Example 613, 4-(((R)-cyclopropyl(phenyl)methyl)amino)-6-(((S)-(6-fluoro-2-methylpyridin-3-yl)(1-(1-(trifluoromethyl)cyclopropyl)-1H-1,2,3-triazol-4-yl)methyl)amino)quinoline-3,8-dicarbonitrile]",144
12,"Cc1nc(F)ccc1[C@H](Nc1cc(Cl)c2ncc(C#N)c(NCC(C)(C)C)c2c1)c1cn(C2(CC(F)(F)F)CC2)nn1 [Example 753, (S)-8-chloro-6-(((6-fluoro-2-methylpyridin-3-yl)(1-(1-(2,2,2-trifluoroethyl)-cyclopropyl)-1H-1,2,3-triazol-4-yl)methyl)amino)-4-(neopentylamino)quinoline-3-carbonitrile]",59
13,"Cc1ncccc1[C@H](Nc1cc(Cl)c2ncc(C#N)c(Nc3ccc(Cl)c(Cl)c3F)c2c1)c1cn(C(C)C)nn1 [Example 232, (S)-8-chloro-4-((3,4-dichloro-2-fluorophenyl)amino)-6-(((1-isopropyl-1H-1,2,3-triazol-4-yl)(2-methylpyridin-3-yl)methyl)amino)quinoline-3-carbonitrile]",346
14,"CC(C)(C)N1CCC(n2cc([C@@H](Nc3cc(Cl)c4ncc(C#N)c(Nc5ccc(F)c(Cl)c5)c4c3)c3cnc(F)c(F)c3)nn2)CC1 [Example 292, (S)-6-(((1-(1-(tert-butyl)piperidin-4-yl)-1H-1,2,3-triazol-4-yl)(5,6-difluoropyridin-3-yl)methyl)amino)-8-chloro-4-((3-chloro-4-fluorophenyl)amino)quinoline-3-carbonitrile]",327
15,"Cc1nc(F)ccc1[C@H](Nc1cc(Cl)c2ncc(C#N)c(NCC(C)(C)CO)c2c1)c1cn(C2(C(F)F)CC2)nn1 [Example 746, (S)-8-chloro-6-(((1-(1-(difluoromethyl)cyclopropyl)-1H-1,2,3-triazol-4-yl)(6-fluoro-2-methylpyridin-3-yl)methyl)amino)-4-((3-hydroxy-2,2-dimethylpropyl)amino)quinoline-3-carbonitrile]",178
16,"CCN1CCC(n2cc([C@@H](Nc3cc(Cl)c4ncc(C#N)c(Nc5ccc(F)c(Cl)c5)c4c3)c3ccc(Cl)s3)nn2)CC1 [Example 382, (R)-8-chloro-4-((3-chloro-4-fluoro-phenyl)amino)-6-(((5-chlorothiophen-2-yl)(1-(1-ethylpiperidin-4-yl)-1H-1,2,3-triazol-4-yl)methyl)amino)quinoline-3-carbonitrile]",768
17,"COc1ncccc1[C@H](Nc1cc(Cl)c2ncc(C#N)c(NCC(C)(C)C)c2c1)c1cn(C2(C(F)(F)F)CC2)nn1 [Example 782, (S)-8-chloro-6-(((2-methoxypyridin-3-yl)(1-(1-(trifluoromethyl)cyclopropyl)-1H-1,2,3-triazol-4-yl)methyl)amino)-4-(neopentylamino)quinoline-3-carbonitrile]",177

# Same assay, conditions: Homo sapiens, Monocyte, read-out: EC50 TNF, LPS-stimulated human monocytes, TNFα TR-FRET
row,SMILES,EC50 [nM]
1,"COc1ccc([C@H](Nc2cc(Cl)c3ncc(C#N)c(NCC(C)(C)C)c3c2)c2nnn(C3(C(F)F)CC3)c2OC)c(C)n1 [Example 966, (S)-8-chloro-6-(((1-(1-(difluoromethyl)cyclopropyl)-5-methoxy-1H-1,2,3-triazol-4-yl)(6-methoxy-2-methylpyridin-3-yl)methyl)amino)-4-(neopentylamino)quinoline-3-carbonitrile]",191

# Same assay, conditions: read-out: EC50 TNF; LPS-stimulated human monocytes, TNFα
row,SMILES,EC50 [nM]
1,"Cc1cncc([C@H](Nc2cc(Cl)c3ncc(C#N)c(Nc4ccc(F)c(Cl)c4)c3c2)c2c[nH]nn2)c1 [Example 249, (S)-8-chloro-4--((3-chloro-4-fluorophenyl)amino)-6-(((5-methylpyridin-3-yl)(1H-1,2,3-triazol-4-yl)methyl)amino)quinoline-3-carbonitrile]",332
2,CC(C)(C)CNc1c(C#N)cnc2c(C#N)cc(N[C@H](c3cn(C4(C(F)F)CC4)nn3)c3cccc4cnccc34)cc12 [Example 551],27
3,"CC(C)Oc1ncccc1[C@H](Nc1cc(Cl)c2ncc(C#N)c(Nc3ccc(F)c(Cl)c3)c2c1)c1cn(C2CCN(C(C)(C)C)CC2)nn1 [Example 291, (S)-6-(((1-(1-(tert-butyl)piperidin-4-yl)-1H-1,2,3-triazol-4-yl)(2-isopro-poxypyridin-3-yl)methyl)amino)-8-chloro-4-((3-chloro-4-fluorophenyl)-amino)quinoline-3-carbonitrile]",478
4,"CC(C)(C)N1CCC(n2cc([C@@H](Nc3cc(Cl)c4ncc(C#N)c(Nc5ccc(F)c(Cl)c5)c4c3)c3ccc4ncsc4c3)nn2)CC1 [Example 63, (S)-6-((benzo[d]thiazol-6-yl(1-(1-(tert-butyl)pipcridin-4-yl)-1H-1,2,3-triazol-4-yl)methyl)amino)-8-chloro-4-((3-chloro-4-fluorophenyl)amino)quinoline-3-carbonitrile]",257

# Same assay, conditions: read-out: EC50 TNF; LPS-stimulated human monocytes, TNFα TR-FRET
row,SMILES,EC50 [nM]
1,"Cn1ccc2c([C@H](Nc3cc(Cl)c4ncc(C#N)c(NCC(C)(C)C)c4c3)c3nnn(C45CC(C4)C5)c3F)cccc2c1=O [Example 961, (S)-6-(((1-(bicyclo[111]pentan-1-yl)-5-fluoro-1H-1,2,3-triazol-4-yl)(2-methyl-1-oxo-1,2-dihydroisoquinolin-5-yl)methyl)amino)-8-chloro-4-(neopentylamino)quinoline-3-carbonitrile]",48
2,"COc1nccc2c([C@H](Nc3cc(Cl)c4ncc(C#N)c(NCC(C)(C)C(F)(F)F)c4c3)c3cn(C45CC(C4)C5)nn3)cccc12 [Example 928, (S)-6-(((1-(bicyclo[1.1.1]pentan-1-yl)-1H-1,2,3-triazol-4-yl)(1-methoxylsoquinolin-5-yl)methyl)amino)-8-chloro-4-((3,3,3-trifluoro-2,2-dimethylpropyl)amino)quinoline-3-carbonitrile]",99
